In paper PMC12481576, “Barbituric Acid Derivatives as Covalent Inhibitors of Leishmania braziliensis Dihydroorotate Dehydrogenase” (Journal of Medicinal Chemistry, 2025):
Where “and” joins values, the source holds several entries; their conditions need not be identical. Equal values may be shown once. Read-outs that look alike come from different tables or passages of the source.

Assays:
LbDHODH = LbDHODH (Leishmania braziliensis, UniProt E9AI53); assay: biochemical; details: for IC50: LbDHODH
Method in brief: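 Screened at 100 μM with and without 4-h enzyme preincubation; DCIP reduction during DHO oxidation read at 610 nm every 3 s for 60 s in 50 mM Tris pH 8.15, 150 mM KCl, 0.1% Triton X-100, triplicate, 5% DMSO control. kinact/KI taken as slope of kobs versus inhibitor concentration (initial linear region).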

in vitro = details: microsomes; for microsomal CLint at 1 μM / remaining at 5 min, 1 μM: male, CD1, mouse; for remaining at 5 min, 1 μM / remaining at 10 min, 1 µM / remaining at 20 min, 1 µM / remaining at 0.5 h, 1 µM / remaining at 1 h, 1 µM: pH 7.4, % Remaining; for remaining at 5 min, 1 μM: T=5 min; for remaining at 10 min, 1 µM / remaining at 20 min, 1 µM / remaining at 0.5 h, 1 µM / remaining at 1 h, 1 µM: mouse; for remaining at 10 min, 1 µM: T=10 min; for remaining at 20 min, 1 µM: T=20 min; for remaining at 0.5 h, 1 µM: T=30 min, 30 min; for remaining at 1 h, 1 µM: T=60 min, 60 min
[1] = 0 h, pH 8.15, read-out: LbDHODH Activity±SD (%)
[2] = 4 h, pH 8.15, read-out: LbDHODH Activity±SD (%)
[3] = n=1, mouse liver microsomes, 1 µM, n=1
[4] = n=2, mouse liver microsomes, 1 µM, n=2

LbDHODH, sequence (E9AI53 entry or part of it): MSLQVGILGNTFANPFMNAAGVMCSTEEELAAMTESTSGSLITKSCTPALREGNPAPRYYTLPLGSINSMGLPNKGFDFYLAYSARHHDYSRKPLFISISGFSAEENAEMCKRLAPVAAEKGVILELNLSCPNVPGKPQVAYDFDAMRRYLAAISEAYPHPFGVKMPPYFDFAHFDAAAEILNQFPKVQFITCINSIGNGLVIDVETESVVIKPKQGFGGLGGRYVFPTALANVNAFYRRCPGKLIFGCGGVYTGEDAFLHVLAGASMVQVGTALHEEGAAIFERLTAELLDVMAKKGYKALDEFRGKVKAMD

Work on `COc1cc(C=C2C(=O)NC(=O)NC2=O)ccc1O` [2c, 5-(4-Hydroxy-3-methoxybenzylidene)pyrimidine-2,4,6(1H,3H,5H)-trione] yielded an activity at 0.390625 µM (LbDHODH; [1]) of 96 ± 9%, an activity at 0.78125 µM (LbDHODH; [1]) of 92 ± 9% and an activity at 1.5625 µM (LbDHODH; [1]) of 82 ± 23%. The activity at 3.125 µM (LbDHODH; [1]) was 77 ± 7%, the activity at 6.25 µM (LbDHODH; [1]) was 46 ± 4% and the activity at 12.5 µM (LbDHODH; [1]) was 36 ± 8%. For the same molecule, the activity at 25 µM (LbDHODH; [1]) was 22 ± 2%, the activity at 50 µM (LbDHODH; [1]) was 13 ± 1% and the activity at 100 µM (LbDHODH; [1]) was 7 ± 4%. The activity at 200 µM (LbDHODH; [1]) was 5 ± 0.4%, the activity at 400 µM (LbDHODH; [1]) was 6 ± 1% and the activity at 0.390625 µM (LbDHODH; [2]) was 102 ± 10%. The activity at 0.78125 µM (LbDHODH; [2]) was 97 ± 9%, the activity at 1.5625 µM (LbDHODH; [2]) was 96 ± 12% and the activity at 3.125 µM (LbDHODH; [2]) was 90 ± 6%. It also gave an activity at 6.25 µM (LbDHODH; [2]) of 86 ± 7%, an activity at 12.5 µM (LbDHODH; [2]) of 83 ± 8% and an activity at 25 µM (LbDHODH; [2]) of 72 ± 5%. The activity at 50 µM (LbDHODH; [2]) was 62 ± 8%, the activity at 100 µM (LbDHODH; [2]) was 52 ± 6% and the activity at 200 µM (LbDHODH; [2]) was 32 ± 2%. The activity at 400 µM (LbDHODH; [2]) was 23 ± 3%, the IC50 (LbDHODH; IC50 0 h, without preincubation) was 7 ± 1 µM and the IC50 (LbDHODH; IC50 4 h, 4-h preincubation) was 89 ± 4 µM. For the same molecule, the activity at 100 µM (LbDHODH; read-out: Single dose (0h) % activity) was 7 ± 3%, the activity at 100 µM (LbDHODH; read-out: Single dose (4h) % activity) was 21 ± 5% and the “Calculated T-half (min), Average” value (mouse liver microsomes (CD1 male), 0.4 mg/ml protein, test conc 1 µM, average of n=1 and n=2) was 6.0 min. The “Calculated T-half (min), n=1” value (mouse liver microsomes (CD1 male), 0.4 mg/ml protein, test conc 1 µM, replicate n=1) was 6.12 min and 6.1 min, the “Calculated T-half (min), n=2” value (mouse liver microsomes (CD1 male), 0.4 mg/ml protein, test conc 1 µM, replicate n=2) was 5.82 min and 5.8 min and the “Calculated CLint, app (µl/min/mg), n=1” value (mouse liver microsomes, 0.4 mg/ml protein, 1 µM, replicate n=1) was 283.1 µL/min/mg. The “Calculated CLint, app (µl/min/mg), n=2” value (mouse liver microsomes, 0.4 mg/ml protein, 1 µM, replicate n=2) was 297.8 µL/min/mg, the “Modified T-half (min), Average” value (mouse liver microsomes, 0.4 mg/ml, 1 µM, average, limited to T Half range 3.00 - […]) was 6.0 min and the “Remarks (mouse microsomal stability study)” value (mouse liver microsomes, 0.4 mg/ml, 1 µM, NCF = no cofactor control) was “Low NCF”. The “mouse liver microsomes T-half” value (mouse liver microsomes, NADPH, 1 μM) was 6.0 min and 6 min, the microsomal CLint at 1 μM (in vitro; pH 7.4) was 283 µL/min/mg and the remaining at 5 min, 1 μM (in vitro; [3]) was 38.7%. It also gave a remaining at 5 min, 1 μM (in vitro; [4]) of 50.5%, a microsomal CLint at 1 μM (in vitro; pH 7.4, Calculated CLint, app (µl/min/mg), Average, mouse liver microsomes, 0.4 mg/ml protein, 1 µM) of 290 µL/min/mg and a microsomal CLint at 1 μM (in vitro; pH 7.4, Calculated CLint, app (µl/min/mg), n=1, mouse liver microsomes, 0.4 mg/ml protein, 1 µM, replicate n=1) of 283 µL/min/mg. For the same molecule, the microsomal CLint at 1 μM (in vitro; pH 7.4, Calculated CLint, app (µl/min/mg), n=2, mouse liver microsomes, 0.4 mg/ml protein, 1 µM, replicate n=2) was 298 µL/min/mg, the microsomal CLint at 1 μM (in vitro; pH 7.4, mouse liver microsomes CLint, app, mouse liver microsomes, NADPH, 1 μM) was 290 µL/min/mg and the remaining at 10 min, 1 µM (in vitro; [3]) was 17.1%. The remaining at 10 min, 1 µM (in vitro; [4]) was 17.8%, the remaining at 20 min, 1 µM (in vitro; [3]) was 9.8% and the remaining at 20 min, 1 µM (in vitro; [4]) was 9.5%. For the same molecule, the remaining at 0.5 h, 1 µM (in vitro; [3]) was 6.6%, the remaining at 0.5 h, 1 µM (in vitro; [4]) was 9.5% and the remaining at 1 h, 1 µM (in vitro; [3]) was 12.9%. The remaining at 1 h, 1 µM (in vitro; [4]) was 13.3%.
